Patent US11840686B2, “Modulation of prekallikrein (PKK) expression” (Ionis Pharmaceuticals, Inc., priority 2013, dated 2023)
Strand notation (5' to 3'): a small letter for the sugar, then the base; units joined by * are phosphorothioate-linked, units joined directly phosphodiester-linked; [ ] holds rarer units or linkages, { } end groups; capitals alone tell only the bases. e = 2'-O-(2-methoxyethyl) (MOE); k = constrained ethyl (cEt); [5mC] = 5-methylcytosine; d = 2'-deoxy (DNA)

tested on: human PKK mRNA; experiment: Antisense inhibition of human PKK mRNA in HepaRG cells, 1,000 nM, MOE/deoxy/cEt oligonucleotides (Example 3); type: cell-based; conditions: HepaRG cells, 1,000 nM antisense oligonucleotide, Table 29
Procedure, shortened: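 HepaRG cells at 20,000 per well electroporated with 1,000 nM 16-mer MOE/cEt/deoxy gapmers (phosphorothioate, 5-methylcytosine). After about 24 h, PKK mRNA measured by qRT-PCR with primer probe set RTS3454, normalized to RIBOGREEN total RNA. Reported as percent inhibition versus untreated cells.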

Substance	% inhibition
548563 (antisense eA*eA*kA*d[5mC]*d[5mC]*dA*dT*dG*dA*dA*dT*dT*dA*kG*kG*eT) [compound 548563]	20%
548544 (antisense eG*e[5mC]*kT*dG*dT*dG*dA*d[5mC]*dT*d[5mC]*dA*dG*dA*kT*k[5mC]*eA) [compound 548544]	62%
548579 (eG*eG*kG*d[5mC]*dT*dA*dT*dA*dT*dT*dG*d[5mC]*d[5mC]*kA*kG*e[5mC]; antisense) [compound 548579]	46%

same assay, conditions: HepaRG cells, electroporation with 1,000 nM antisense oligonucleotide, approx. 24 hours, PKK mRNA by RT-PCR (RTS3454), relative to untreated control cells; Table 25 experiment

Substance	% inhibition
548162 (e[5mC]*e[5mC]*kT*d[5mC]*dG*d[5mC]*dA*dT*dT*dG*dT*d[5mC]*dA*kG*k[5mC]*e[5mC]; antisense) [compound 548162]	25%
548215 (eG*e[5mC]*kA*dT*dA*dG*dA*d[5mC]*d[5mC]*d[5mC]*d[5mC]*dA*dA*k[5mC]*kA*eG; antisense) [compound 548215]	61%
548191 (eG*eT*k[5mC]*dA*dA*d[5mC]*dA*dT*dA*dT*dT*d[5mC]*d[5mC]*kA*kT*eG; antisense) [compound 548191]	0%

same assay, conditions: HepaRG cells, electroporation with 1,000 nM antisense oligonucleotide, approx. 24 hours, PKK mRNA by RT-PCR (RTS3454), relative to untreated control cells; Table 26 experiment

Substance	% inhibition
548286 (antisense eG*eG*kG*dA*d[5mC]*dT*dA*d[5mC]*dA*dT*dG*d[5mC]*dA*kA*kT*eA) [compound 548286]	47%

same assay, conditions: HepaRG cells, electroporation with 1,000 nM antisense oligonucleotide, approximately 24 hours, primer probe set RTS3454, relative to untreated control cells; experiment of Table 23

Substance	% inhibition
547956 (eG*eT*kT*dA*dA*dA*dA*dG*dG*d[5mC]*dT*dA*dT*kA*kT*e[5mC]; antisense) [compound 547956]	13%
547967 (antisense eG*eG*k[5mC]*dA*dG*dG*dG*dT*dT*d[5mC]*dA*dG*dG*kT*kA*eA) [compound 547967]	25%
547978 (antisense e[5mC]*eT*kT*dG*dG*d[5mC]*dA*dA*dA*d[5mC]*dA*dT*dT*k[5mC]*kA*e[5mC]) [compound 547978]	71%
547938 (eT*eT*kG*dT*dG*dA*d[5mC]*dT*d[5mC]*dG*dA*dT*dT*kT*kT*e[5mC]; antisense) [compound 547938]	56%

same assay, conditions: HepaRG cells, electroporation with 1,000 nM antisense oligonucleotide, approximately 24 hours, primer probe set RTS3454, relative to untreated control cells; experiment of Table 24

Substance	% inhibition
548020 (eT*e[5mC]*k[5mC]*d[5mC]*d[5mC]*dA*dA*dG*dA*dA*dG*dA*dG*kT*kT*eT; antisense) [compound 548020]	76%
548057 (e[5mC]*eA*kT*dA*dT*dT*dG*dG*dT*dT*dT*dT*dT*kG*kG*eA; antisense) [compound 548057]	49%
548037 (eA*eA*kT*dG*dT*d[5mC]*dT*dG*dA*d[5mC]*dA*dG*dA*kT*kT*eT; antisense) [compound 548037]	70%
548009 (eG*eT*kT*dA*d[5mC]*dA*d[5mC]*dA*dA*dT*d[5mC]*dT*d[5mC]*kA*kA*eA; antisense) [compound 548009]	47%
548036 (e[5mC]*e[5mC]*kA*d[5mC]*dT*dA*dT*dA*dG*dA*dT*dG*d[5mC]*kG*k[5mC]*e[5mC]; antisense) [compound 548036]	74%
548011 (e[5mC]*e[5mC]*kA*dG*dT*dG*dT*dT*dA*d[5mC]*dA*d[5mC]*dA*kA*kT*e[5mC]; antisense) [compound 548011]	14%

same assay, conditions: PKK mRNA, HepaRG cells, 1,000 nM antisense oligonucleotide; Table 31

Substance	% inhibition
548619 (antisense eG*eG*kT*dT*dG*dG*dT*dG*dG*d[5mC]*dG*dG*dG*kA*kT*e[5mC]) [compound 548619]	19%
548656 (antisense eT*eT*kA*d[5mC]*dA*dA*d[5mC]*dA*dG*dA*d[5mC]*d[5mC]*d[5mC]*kA*kG*eG) [compound 548656]	35%
548632 (antisense eG*eG*kA*dG*dA*dT*dA*dT*d[5mC]*dA*dG*dG*dT*kG*k[5mC]*eA) [compound 548632]	45%
548637 (antisense eG*e[5mC]*kT*dG*dA*dT*d[5mC]*dT*dT*d[5mC]*dT*dA*dA*kT*kG*e[5mC]) [compound 548637]	38%
548615 (antisense eT*eT*kG*dG*dT*dG*dG*d[5mC]*dG*dG*dG*dA*dT*k[5mC]*kG*eG) [compound 548615]	10%

same assay, conditions: Table 19; HepaRG cells, electroporation with 1,000 nM antisense oligonucleotide, approximately 24 hours; PKK mRNA by RT-PCR (RTS3454), relative to untreated control cells

Substance	% inhibition
548083 (eA*eG*kG*dG*dA*d[5mC]*d[5mC]*dA*d[5mC]*d[5mC]*dT*dG*dA*kA*kT*e[5mC]; antisense) [compound 548083]	0%
548110 (antisense eT*eG*k[5mC]*dA*dT*d[5mC]*dT*dG*dA*dG*d[5mC]*dT*dT*kT*kT*e[5mC]) [compound 548110]	62%
548093 (antisense eT*eT*kT*dG*d[5mC]*dA*dA*dA*d[5mC]*dT*dA*dA*dG*kG*kG*eA) [compound 548093]	0%
548091 (antisense eT*eG*k[5mC]*dA*dA*dA*d[5mC]*dT*dA*dA*dG*dG*dG*kA*k[5mC]*e[5mC]) [compound 548091]	62%

same assay, conditions: Table 20; HepaRG cells, electroporation with 1,000 nM antisense oligonucleotide, approximately 24 hours; PKK mRNA by RT-PCR (RTS3454), relative to untreated control cells

Substance	% inhibition
547882 (e[5mC]*eT*kG*dG*d[5mC]*dA*dG*d[5mC]*dG*dA*dA*dT*dG*kT*kT*eA; antisense) [compound 547882]	91%
547914 (eG*eG*k[5mC]*dA*dA*d[5mC]*dA*dT*d[5mC]*d[5mC]*dA*d[5mC]*dA*kT*k[5mC]*eT; antisense) [compound 547914]	74%
547893 (eG*e[5mC]*kA*dA*dT*dT*dG*dT*dT*d[5mC]*d[5mC]*dG*dG*kT*kA*e[5mC]; antisense) [compound 547893]	81%

same assay, conditions: Table 21 experiment; HepaRG cells, electroporation with 1,000 nM antisense oligonucleotide, approx. 24 hours; PKK mRNA by RT-PCR (RTS3454), relative to untreated control cells

Substance	% inhibition
547773 (antisense eT*e[5mC]*kT*dT*dG*dG*dA*dG*dG*dT*dG*dA*dG*kT*k[5mC]*eT) [compound 547773]	47%
547822 (eG*e[5mC]*kA*dA*d[5mC]*d[5mC]*dA*dA*dA*d[5mC]*d[5mC]*dT*dT*kT*kT*e[5mC]; antisense) [compound 547822]	71%
547794 (antisense eT*e[5mC]*kA*dT*dA*dG*dA*dG*dT*dT*dG*dA*dG*kT*k[5mC]*eA) [compound 547794]	49%
547817 (eT*eG*kA*dA*d[5mC]*dT*dT*dG*d[5mC]*dT*dG*dG*dA*kA*kG*eA; antisense) [compound 547817]	18%

same assay, conditions: Table 22 experiment; HepaRG cells, electroporation with 1,000 nM antisense oligonucleotide, approx. 24 hours; PKK mRNA by RT-PCR (RTS3454), relative to untreated control cells

Substance	% inhibition
547882 (e[5mC]*eT*kG*dG*d[5mC]*dA*dG*d[5mC]*dG*dA*dA*dT*dG*kT*kT*eA; antisense) [compound 547882]	96%
547914 (eG*eG*k[5mC]*dA*dA*d[5mC]*dA*dT*d[5mC]*d[5mC]*dA*d[5mC]*dA*kT*k[5mC]*eT; antisense) [compound 547914]	63%
547878 (antisense e[5mC]*eA*kA*d[5mC]*dA*d[5mC]*dT*dG*d[5mC]*dT*dA*dA*d[5mC]*k[5mC]*kT*eT) [compound 547878]	62%
547893 (eG*e[5mC]*kA*dA*dT*dT*dG*dT*dT*d[5mC]*d[5mC]*dG*dG*kT*kA*e[5mC]; antisense) [compound 547893]	80%

same assay, conditions: Table 27; HepaRG cells, 1,000 nM antisense oligonucleotide; human PKK mRNA

Substance	% inhibition
548363 (antisense e[5mC]*eA*kG*d[5mC]*dA*dG*dG*d[5mC]*dT*d[5mC]*dA*dA*dA*kG*kT*eG) [compound 548363]	37%
548374 (eG*e[5mC]*kA*d[5mC]*d[5mC]*d[5mC]*dT*dT*dT*dT*d[5mC]*dA*dT*kT*kG*eA; antisense) [compound 548374]	41%
548376 (eG*e[5mC]*k[5mC]*dT*dT*dT*dG*dA*d[5mC]*d[5mC]*dT*dT*dT*k[5mC]*kG*e[5mC]; antisense) [compound 548376]	65%

same assay, conditions: Table 28; HepaRG cells, 1,000 nM antisense oligonucleotide; human PKK mRNA

Substance	% inhibition
548530 (antisense eA*eT*kA*dA*dT*dA*dG*dA*dG*dG*d[5mC]*dA*dG*k[5mC]*k[5mC]*eA) [compound 548530]	50%
548520 (antisense e[5mC]*e[5mC]*kG*d[5mC]*dT*dT*d[5mC]*d[5mC]*d[5mC]*dT*dG*dA*d[5mC]*kT*kG*eT) [compound 548520]	43%
548507 (antisense eA*eA*kA*d[5mC]*dT*d[5mC]*d[5mC]*dT*d[5mC]*dT*d[5mC]*dA*dA*kG*kG*e[5mC]) [compound 548507]	53%
548484 (e[5mC]*e[5mC]*k[5mC]*d[5mC]*dG*dG*dA*dG*d[5mC]*dA*d[5mC]*d[5mC]*dT*kT*k[5mC]*eA; antisense) [compound 548484]	41%

same assay, conditions: Table 30; human PKK mRNA, HepaRG cells, 1,000 nM antisense oligonucleotide

Substance	% inhibition
548439 (antisense e[5mC]*e[5mC]*kT*dA*dT*dA*dT*d[5mC]*dA*d[5mC]*dT*dG*dT*kA*k[5mC]*e[5mC]) [compound 548439]	46%
548446 (antisense eT*e[5mC]*k[5mC]*dT*dA*dT*dG*dT*d[5mC]*dA*d[5mC]*dT*dG*kT*kA*e[5mC]) [compound 548446]	16%
548436 (antisense eA*eT*kA*dT*d[5mC]*dA*d[5mC]*dT*dG*dT*dA*d[5mC]*d[5mC]*kT*kG*eT) [compound 548436]	8%
548421 (antisense e[5mC]*eA*k[5mC]*dT*dG*dT*d[5mC]*d[5mC]*dT*dA*dT*dA*dT*k[5mC]*kA*e[5mC]) [compound 548421]	56%
548430 (antisense e[5mC]*e[5mC]*kT*dA*dT*dA*dA*d[5mC]*dT*dA*dT*dA*dA*k[5mC]*kA*eG) [compound 548430]	21%
548407 (e[5mC]*e[5mC]*kT*dA*dT*dA*dA*d[5mC]*dT*dG*d[5mC]*dT*dG*k[5mC]*kT*e[5mC]; antisense) [compound 548407]	24%
